Experimental data published in patent publication US20080153838A1, “Compounds Having Tie2 (Tek) Activity” (ASTRAZENECA AB, priority 2005, published 2008).

Assays:
[1] = molecular target: T1, Tie2 receptor tyrosine kinase (Homo sapiens, UniProt Q02763); assay: Cellular Tie2 autophosphorylation assay (Test (b)); type: cell-based; parameters: one can use natural cell lines or primary cells which are known to express the receptor of choice; endogenous in cells; host or cells: EA.hy926/B3 cells (HUVEC named as alternative); settings: Ang1 ligand stimulated whole cells (e.g. EA.hy926/B3); read-out: IC50 (μM) Test (b): Inhibition of autophosphorylation of Tie2 receptor tyrosine kinase
Text: b. Cellular Tie2 Autophosphorylation Assay
This assay is based on measuring the ability of compounds to inhibit autophosphorylation of the Tie2 receptor which normally leads to the production of “activated” receptor that in turn initiates the particular signal transduction pathways associated with the receptor function.
Autophosphorylation can be achieved by a number of means. It is known that expression of recombinant kinase domains in baculoviral systems can lead to the production of phosphorylated and activated receptor. It is also reported that over expression of receptors in recombinant cell lines can itself lead to receptor autophosphorylation in the absence of the ligand (Heldin C-H. 1995 Cell: 80, 213-223; Blume-J. P, Hunter T. 2001 Nature: 411, 355-65). Furthermore, there are numerous literature examples in which chimaeric receptors have been constructed. In these cases the natural, external cell surface domain of the receptor has been replaced with that of a domain which is known to be readily dimerised via the addition of the appropriate ligand (e.g. TrkA-Tie2/NGF ligand (Marron, M. B., et al., 2000 Journal of Biological Chemistry: 275:39741-39746) or C-fms-Tie-1/CSF-1 ligand (Kontos, C. D., et al., 2002 Molecular and Cellular Biology: 22, 1704-1713). Thus when the chimaeric receptor expressed in a host cell line and the respective ligand is added, this induces autophosphorylation of the chimeric receptor's kinase domain. This approach has the advantage of often allowing a known (and often easily obtained) ligand to be used instead of having to identify and isolate the natural ligand for each receptor of interest.
Naturally if the ligand is available one can use natural cell lines or primary cells which are known to express the receptor of choice and simply stimulate with ligand to achieve ligand induced phosphorylation. […]
Target sequence in this assay (Q02763 23-1124): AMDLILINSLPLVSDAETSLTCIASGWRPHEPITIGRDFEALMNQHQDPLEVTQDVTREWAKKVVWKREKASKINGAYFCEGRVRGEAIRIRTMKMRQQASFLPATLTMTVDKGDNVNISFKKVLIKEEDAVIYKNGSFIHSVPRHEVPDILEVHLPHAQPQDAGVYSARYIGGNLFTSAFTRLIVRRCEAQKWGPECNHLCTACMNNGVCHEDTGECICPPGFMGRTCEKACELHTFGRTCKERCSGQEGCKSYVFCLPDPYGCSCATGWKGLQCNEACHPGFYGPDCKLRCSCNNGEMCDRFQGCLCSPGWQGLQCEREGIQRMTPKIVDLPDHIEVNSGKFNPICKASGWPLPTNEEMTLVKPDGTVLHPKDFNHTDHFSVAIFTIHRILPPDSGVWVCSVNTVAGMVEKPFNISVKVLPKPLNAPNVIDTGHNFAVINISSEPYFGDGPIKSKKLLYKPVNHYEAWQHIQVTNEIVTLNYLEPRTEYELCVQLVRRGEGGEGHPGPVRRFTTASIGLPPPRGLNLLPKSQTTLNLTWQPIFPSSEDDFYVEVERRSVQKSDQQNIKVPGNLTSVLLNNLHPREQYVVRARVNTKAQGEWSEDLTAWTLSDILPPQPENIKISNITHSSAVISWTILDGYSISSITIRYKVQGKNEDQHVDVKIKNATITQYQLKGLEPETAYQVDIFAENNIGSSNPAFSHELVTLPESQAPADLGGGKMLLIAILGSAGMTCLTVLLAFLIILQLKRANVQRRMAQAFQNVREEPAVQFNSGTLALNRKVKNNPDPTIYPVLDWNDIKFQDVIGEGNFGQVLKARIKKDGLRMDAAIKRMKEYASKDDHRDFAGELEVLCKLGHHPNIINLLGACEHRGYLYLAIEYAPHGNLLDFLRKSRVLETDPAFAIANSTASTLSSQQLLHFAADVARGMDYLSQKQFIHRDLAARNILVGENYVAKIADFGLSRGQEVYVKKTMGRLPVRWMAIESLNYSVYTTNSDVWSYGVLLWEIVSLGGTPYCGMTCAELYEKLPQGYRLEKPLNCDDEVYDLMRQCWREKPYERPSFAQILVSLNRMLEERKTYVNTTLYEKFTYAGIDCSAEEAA

[2] = molecular target: T1, Tie2 receptor tyrosine kinase; assay: In vitro receptor tyrosine kinase inhibition assay (ELISA, Test (a)); type: biochemical; parameters: consist of only the intracellular portion C-terminal portion of the respective receptor, within which is found the kinase domain; made in house; host or cells: baculovirus/Sf21 insect cells; cleared lysate used without purification; settings: recombinant human Tie2 kinase domain, peptide substrate
Description: a. In Vitro Receptor Tyrosine Kinase Inhibition Assay
To test for inhibition of Tie2 receptor tyrosine kinase, compounds are evaluated in a non-cell based protein kinase assay by their ability to inhibit the protein kinase enzyme phosphorylation of a tyrosine containing polypeptide substrate in an ELISA based microtitre plate assay. In this particular case, the assay was to determine the IC50, for three different recombinant human tyrosine kinases Tie2, KDR and Flt.
To facilitate production of the tyrosine kinases, recombinant receptor genes were produced using standard molecular biology cloning and mutagenesis techniques. These recombinant proteins fragments encoded within these genes consist of only the intracellular portion C-terminal portion of the respective receptor, within which is found the kinase domain. The recombinant genes encoding the kinase domain containing fragments were cloned and expressed in standard baculovirus/Sf21 system (or alternative equivalent). […]
Constitutive kinase activity of these recombinant proteins was determined by their ability to phosphorylate a synthetic peptide (made up of a random co-polymer of Glutamic Acid, Alanine and Tyrosine in the ratio of 6:3:1). […]
The immobilised phospho-peptide product of the reaction was detected by immunological methods. […] Following extensive washing with PBS-T, HRP activity in each well of the plate was measured […] using 22′-Azino-di-[3-ethylbenzthiazoline sulfonate (6)] diammonium salt crystals ABTS (Sigma P4922—prepared as per manufactures instructions) as a substrate incubated for 30-45 minutes to allow colour development, before 100 ul of 1M H2SO4 was added to stop the reaction.
Quantification of colour development and thus enzyme activity was achieved by the measurement of absorbance at 405 nm on a Molecular Devices ThermoMax microplate reader. Kinase inhibition for a given compound was expressed as an IC50 value. […] The range of phosphorylation was calculated from the positive (vehicle plus ATP) and negative (vehicle minus ATP) control values.
Target sequence in this assay (Q02763 770-1124 limits assumed): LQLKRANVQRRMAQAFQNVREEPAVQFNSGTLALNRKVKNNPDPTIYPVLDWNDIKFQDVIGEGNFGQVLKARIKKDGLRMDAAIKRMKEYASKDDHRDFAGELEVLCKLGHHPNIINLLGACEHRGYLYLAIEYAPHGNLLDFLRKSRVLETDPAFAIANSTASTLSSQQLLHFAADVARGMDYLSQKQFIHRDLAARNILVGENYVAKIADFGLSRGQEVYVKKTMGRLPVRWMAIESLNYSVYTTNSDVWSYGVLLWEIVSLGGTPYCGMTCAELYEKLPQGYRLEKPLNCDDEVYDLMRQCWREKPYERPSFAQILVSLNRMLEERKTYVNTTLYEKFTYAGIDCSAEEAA

Structure (SMILES)	IC50 [1] [µM]	IC50 [2] [µM]
CC(C)(C)c1cc(NC(=O)Nc2cccc(C#Cc3cnc(N)cn3)c2)no1 [Example 5, N-{3-[(5-aminopyrazin-2-yl)ethynyl]phenyl}-N′-(5-tert-butylisoxazol-3-yl)urea]	0.02	4.4
CC(C)(C)c1cc(NC(=O)Nc2cccc(C#Cc3ccc(N)nc3)c2)no1 [Example 2, N-{3-[(6-aminopyridin-3-yl)ethynyl]phenyl}-N′-(5-tert-butylisoxazol-3-yl)urea]	0.031	2.6
CC(C)(C)c1cc(NC(=O)Nc2cccc(C#Cc3cccnc3N)c2)no1 [Example 3, N-2{3-[(2-aminopyridin-3-yl)ethynyl]phenyl}-N′-(5-tert-butylisoxazol-3-yl)urea]	0.077	8.2
